Test results: patent US12077503B2, “Substituted cyclic amides and their use as herbicides” (FMC CORPORATION, priority 2015, dated 2024)
Where two headings read alike, the source gives them in different places.

Columns and labels:
Format in all cases: in vivo
[1] = tested on: ducksalad (Heteranthera limosa); assay: Test B flooded paddy test; settings: Heteranthera limosa, Flood, 250 g ai/ha, read-out: Ducksalad plant response rating
Summary of the method: (§1)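 Plants at 2-leaf stage flooded to 3 cm above soil, with compounds applied directly to paddy water and that depth maintained. Plants kept in greenhouse 13–15 d. Visual rating versus controls on a 0 (no effect) to 100 (complete control) scale.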

rice (Oryra sativa) = assay: Test B flooded paddy test; settings: Oryza sativa, Flood, 250 g ai/ha, read-out: Rice plant response rating
Summary of the method: as §1

[2] = tested on: barnyardgrass (Echinochloa crus-galli); assay: Test B flooded paddy test; settings: Echinochloa crus-galli, Flood, 250 g ai/ha, read-out: Barnyardgrass plant response rating
Summary of the method: as §1

[3] = tested on: sedge, umbrella (small-flower umbrella sedge, Cyperus difformis); assay: Test B flooded paddy test; settings: Cyperus difformis, Flood, 250 g ai/ha, read-out: Sedge, Umbrella plant response rating
Summary of the method: as §1

Kochia (Kochia scoparia) [4] = assay: Test A postemergence; settings: Bassia scoparia, post-emergence, 240 h, postemergence; for pest or weed control at 125 g/ha: 125 g ai/ha
Summary of the method: (§2)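 In a loam soil and sand blend, planted seeds got a preemergence directed soil spray, and young plants at the one- to two-leaf stage, 2–10 cm high, got a postemergence application; ~10 d greenhouse hold; injury rated visually, 0 = none, 100 = complete control.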

[5] = tested on: ryegrass, Italian (Italian ryegrass, Lolium multiflorum); assay: Test A postemergence; settings: Lolium multiflorum, post-emergence, 240 h, postemergence; for pest or weed control at 125 g/ha: 125 g ai/ha
Summary of the method: as §2

[6] = tested on: blackgrass (Alopecurus myosuroides); assay: Test A postemergence; settings: Alopecurus myosuroides, post-emergence, 240 h, postemergence; for pest or weed control at 125 g/ha: 125 g ai/ha
Summary of the method: as §2

[7] = tested on: giant foxtail (Setaria faberii); assay: Test A postemergence; settings: Setaria faberi, post-emergence, 240 h, postemergence; for pest or weed control at 125 g/ha: 125 g ai/ha
Summary of the method: as §2

Kochia (Kochia scoparia) [8] = assay: Test A preemergence; settings: Bassia scoparia, pre-emergence, 240 h; for pest or weed control at 500 g/ha: 500 g ai/ha
Summary of the method: as §2

[9] = tested on: ryegrass, Italian (Italian ryegrass, Lolium multiflorum); assay: Test A preemergence; settings: Lolium multiflorum, pre-emergence, 240 h; for pest or weed control at 125 g/ha: 125 g ai/ha; for pest or weed control at 500 g/ha: 500 g ai/ha
Summary of the method: as §2

[10] = tested on: ragweed (common ragweed, Ambrosia elatior); assay: Test A preemergence; settings: Ambrosia artemisiifolia, pre-emergence, 240 h; for pest or weed control at 125 g/ha: 125 g ai/ha; for pest or weed control at 500 g/ha: 500 g ai/ha
Summary of the method: as §2

[11] = tested on: barnyardgrass (Echinochloa crus-galli); assay: Test A preemergence; settings: Echinochloa crus-galli, pre-emergence, 240 h; for pest or weed control at 125 g/ha: 125 g ai/ha, 0 to 100 scale where 0 is no effect and 100 is complete control; for pest or weed control at 500 g/ha: 500 g ai/ha
Summary of the method: as §2

[12] = tested on: pigweed (Amaranthus retroflexus); assay: Test A preemergence; settings: Amaranthus retroflexus, pre-emergence, 240 h; for pest or weed control at 125 g/ha: 125 g ai/ha; for pest or weed control at 500 g/ha: 500 g ai/ha
[13] = tested on: giant foxtail (Setaria faberii); assay: Test A preemergence; settings: Setaria faberi, pre-emergence, 240 h; for pest or weed control at 125 g/ha: 125 g ai/ha; for pest or weed control at 500 g/ha: 500 g ai/ha
Summary of the method: as §2

[14] = scale of 0 to 100 where 0 is no effect and 100 is complete control
[15] = 0 to 100 scale where 0 is no effect and 100 is complete control

CN1C[C@H](c2cccc(C3CC3)c2)[C@@H](C(=O)Nc2ccccc2F)C1=O [Compound 815]
pest or weed control at 250 g/ha [1, 14]: 75% | pest or weed control at 250 g/ha (rice (Oryra sativa); [14]): 20% | pest or weed control at 250 g/ha [2, 14]: 65% | pest or weed control at 250 g/ha [3, 14]: 0% | pest or weed control at 125 g/ha (Kochia (Kochia scoparia) [4]; visual injury rating after approximately 10 d, read-out: Kochia plant response rating (0 to 100 scale, 0 no effect, 100 complete control)): 40% | pest or weed control at 125 g/ha ([5]; visual injury rating after approximately 10 d, read-out: Ryegrass, Italian plant response rating (0 to 100 scale, 0 no effect, 100 complete control)): 60% | pest or weed control at 125 g/ha ([6]; visual injury rating after approximately 10 d, read-out: Blackgrass plant response rating (0 to 100 scale, 0 no effect, 100 complete control)): 50% | pest or weed control at 125 g/ha ([7]; visual injury rating after approximately 10 d, read-out: Foxtail, Giant plant response rating (0 to 100 scale, 0 no effect, 100 complete control)): 90% | pest or weed control at 125 g/ha (Kochia (Kochia scoparia) [8]; 125 g ai/ha, preemergence, visual rating after approx. 10 d, 0 to 100 scale where 0 is no effect and 100 is complete control, read-out: Plant response rating, Kochia): 70% | pest or weed control at 500 g/ha (Kochia (Kochia scoparia) [8]; Preemergence, visual injury vs untreated controls after approximately 10 d, read-out: Kochia plant response rating (0 to 100 scale where 0 is no effect and 100 is complete control)): 80% | pest or weed control at 125 g/ha ([9]; preemergence, visual rating after approx. 10 d, 0 to 100 scale where 0 is no effect and 100 is complete control, read-out: Plant response rating, Ryegrass, Italian): 80% | pest or weed control at 500 g/ha ([9]; Preemergence, visual injury vs untreated controls after approximately 10 d, read-out: Ryegrass, Italian plant response rating (0 to 100 scale where 0 is no effect and 100 is complete control)): 80% | pest or weed control at 125 g/ha ([10]; preemergence, visual rating after approx. 10 d, 0 to 100 scale where 0 is no effect and 100 is complete control, read-out: Plant response rating, Ragweed): 0% | pest or weed control at 500 g/ha ([10]; Preemergence, visual injury vs untreated controls after approximately 10 d, read-out: Ragweed plant response rating (0 to 100 scale where 0 is no effect and 100 is complete control)): 0% | pest or weed control at 125 g/ha ([11]; preemergence, visual rating after approx. 10 d, read-out: Plant response rating, Barnyardgrass): 90% | pest or weed control at 500 g/ha ([11]; Preemergence, visual injury vs untreated controls after approximately 10 d, read-out: Barnyardgrass plant response rating (0 to 100 scale where 0 is no effect and 100 is complete control)): 100% | pest or weed control at 125 g/ha ([12]; preemergence, visual rating after approx. 10 d, 0 to 100 scale where 0 is no effect and 100 is complete control, read-out: Plant response rating, Pigweed): 30% | pest or weed control at 500 g/ha ([12]; Preemergence, visual injury vs untreated controls after approximately 10 d, read-out: Pigweed plant response rating (0 to 100 scale where 0 is no effect and 100 is complete control)): 50% | pest or weed control at 125 g/ha ([13]; preemergence, visual rating after approx. 10 d, 0 to 100 scale where 0 is no effect and 100 is complete control, read-out: Plant response rating, Foxtail, Giant): 90% | pest or weed control at 500 g/ha ([13]; Preemergence, visual injury vs untreated controls after approximately 10 d, read-out: Foxtail, Giant plant response rating (0 to 100 scale where 0 is no effect and 100 is complete control)): 100%

CN1C[C@H](c2csc3ccccc23)[C@@H](C(=O)Nc2ccccc2F)C1=O [Compound 1114]
pest or weed control at 250 g/ha [1, 15]: 85% | pest or weed control at 250 g/ha (rice (Oryra sativa); [15]): 0% | pest or weed control at 250 g/ha [2, 15]: 45% | pest or weed control at 250 g/ha [3, 15]: 0% | pest or weed control at 125 g/ha (Kochia (Kochia scoparia) [4]; visual injury on 0 to 100 scale (0 no effect, 100 complete control), approx. 10 d, read-out: Kochia plant response rating): 0% | pest or weed control at 500 g/ha (Kochia (Kochia scoparia) [4]; 500 g ai/ha, 0 to 100 scale, 0 is no effect, 100 is complete control, read-out: Kochia plant response rating): 20% | pest or weed control at 125 g/ha ([5]; visual injury on 0 to 100 scale (0 no effect, 100 complete control), approx. 10 d, read-out: Ryegrass, Italian plant response rating): 0% | pest or weed control at 500 g/ha ([5]; 500 g ai/ha, 0 to 100 scale, 0 is no effect, 100 is complete control, read-out: Ryegrass, Italian plant response rating): 40% | pest or weed control at 125 g/ha ([6]; visual injury on 0 to 100 scale (0 no effect, 100 complete control), approx. 10 d, read-out: Blackgrass plant response rating): 20% | pest or weed control at 500 g/ha ([6]; 500 g ai/ha, 0 to 100 scale, 0 is no effect, 100 is complete control, read-out: Blackgrass plant response rating): 60% | pest or weed control at 125 g/ha ([7]; visual injury on 0 to 100 scale (0 no effect, 100 complete control), approx. 10 d, read-out: Foxtail, Giant plant response rating): 90% | pest or weed control at 500 g/ha ([7]; 500 g ai/ha, 0 to 100 scale, 0 is no effect, 100 is complete control, read-out: Foxtail, Giant plant response rating): 90% | pest or weed control at 500 g/ha (Kochia (Kochia scoparia) [8]; preemergence, 0 to 100 scale where 0 is no effect and 100 is complete control, read-out: Kochia plant response rating): 60% | pest or weed control at 125 g/ha ([9]; preemergence, 0 to 100 scale where 0 is no effect and 100 is complete control, approx. 10 d, read-out: Ryegrass, Italian plant response rating): 0% | pest or weed control at 500 g/ha ([9]; preemergence, 0 to 100 scale where 0 is no effect and 100 is complete control, read-out: Ryegrass, Italian plant response rating): 20% | pest or weed control at 125 g/ha ([10]; preemergence, 0 to 100 scale where 0 is no effect and 100 is complete control, approx. 10 d, read-out: Ragweed plant response rating): 0% | pest or weed control at 500 g/ha ([10]; preemergence, 0 to 100 scale where 0 is no effect and 100 is complete control, read-out: Ragweed plant response rating): 0% | pest or weed control at 125 g/ha ([11]; preemergence, approx. 10 d, read-out: Barnyardgrass plant response rating): 90% | pest or weed control at 500 g/ha ([11]; preemergence, visual injury rating about 10 d after treatment, 0 to 100 scale (0 no effect, 100 complete control), read-out: Barnyardgrass plant response rating): 90% | pest or weed control at 125 g/ha ([12]; preemergence, 0 to 100 scale where 0 is no effect and 100 is complete control, approx. 10 d, read-out: Pigweed plant response rating): 0% | pest or weed control at 500 g/ha ([12]; preemergence, 0 to 100 scale where 0 is no effect and 100 is complete control, read-out: Pigweed plant response rating): 0% | pest or weed control at 125 g/ha ([13]; preemergence, 0 to 100 scale where 0 is no effect and 100 is complete control, approx. 10 d, read-out: Foxtail, Giant plant response rating): 90% | pest or weed control at 500 g/ha ([13]; preemergence, 0 to 100 scale where 0 is no effect and 100 is complete control, read-out: Foxtail, Giant plant response rating): 90%
